Structures can show the parent of a compound that is named as a salt.
What was measured:
[1] = tested on: human acute lymphoblastic leukemia RS4;11 cells; experiment: Cell growth inhibition test against hematopoietic tumor cell lines (XTT), RS4;11; assay type: cell-based; conditions: 72 hours culture with compound, read-out: growth inhibitory activity, GI50 value
Text: (§1) As hematopoietic tumor cell lines, human acute lymphoblastic leukemia RS4;11 cells (ATCC No. CRL-1873), human chronic myeloid leukemia K-562 cells (ATCC No. CCL-243), and human multiple myeloma NCI-H929 cells (ATCC No. CRL-9068) were used. For the culture of the cells, RPMI 1640 Medium (Invitrogen, catalog No. 11875-093) containing 10% fetal bovine serum (Invitrogen, catalog No. 10099-141), 10 mmol/L 4-(2-hydroxyethyl)-1-piperazinethanesulfonic acid (HEPES) buffer (ICN Biomedicals, catalog No. 1688449), 1 mmol/L sodium pyruvate (Invitrogen, catalog No. 11360-070), 4.5 g/L glucose (Sigma-Aldrich, catalog No. G8769), 100 units/mL penicillin (Invitrogen, catalog No. 15140-122) and 100 μg/mL streptomycin (Invitrogen, catalog No. 15140-122) was used. The cells were cultured at 37° C. in a 5% carbon dioxide atmosphere.
(§2) RS4;11 cells (20000 cells/well), K-562 cells (1000 cells/well), or NCI-H929 cells (15000 cells/well) were seeded in each well of 96-well plates (Nunc, catalog No. 167008), and cultured overnight. Test compounds diluted stepwise were added, and the cells were further cultured for 72 hours (final volume: 100 μL/well). Fifty μL XTT labeling mixture of Cell Proliferation Kit II (XTT) (Roche Diagnostics, catalog No. 1465015) was added to each well, and the plates were incubated at 37° C. After 4 hours, absorbance at 490 nm (reference wavelength: 655 nm) was measured with a plate reader (Molecular Device, SpectraMax 340PC^384). Growth ratios of the cells in the wells treated with the test compound was calculated based on the growth ratio of the cells in the control well treated with solvent (dimethyl sulfoxide (DMSO)) for 72 hours, which was defined as 100%.

[2] = tested on: human non-Hodgkin's lymphoma SR cells; experiment: Cell growth inhibition test on non-Hodgkin's lymphoma cells (XTT), SR; assay type: cell-based; conditions: same manner as Test Example 1, read-out: growth inhibitory activity, GI50 value
Method: as §2
(§3) As cancer cell lines, human acute myeloid leukemia MV-4-11 cells (ATCC No. CRL-9591) and human non-Hodgkin's lymphoma SR cells (ATCC No. CRL-2262) were used. The cells were cultured at 37° C. in a 5% carbon dioxide atmosphere by using the mediums mentioned below, respectively.
(§4) In the same manner as that of Test Example 1, the cells were seeded (8000 to 16000 cells/well, respectively) in each well of 96-well plates (Nunc, catalog No. 167008), and growth ratios of the cells treated with test compounds were calculated. Measurement of absorbance was performed at 3 to 4 hours after the addition of the XTT labeling mixture.

[3] = tested on: human chronic myeloid leukemia K-562 cells; experiment: Cell growth inhibition test against hematopoietic tumor cell lines (XTT), K-562; assay type: cell-based; conditions: K562, 72 hours culture with compound, read-out: growth inhibitory activity, GI50 value
Text: as §1, §2

[4] = biological target: T1, recombinant human Eg5 motor domain protein (Homo sapiens, UniProt P52732); experiment: Eg5 enzyme inhibition test (ATPase activity); assay type: biochemical; conditions: for inhibition of the ATPase activity of Eg5 (in words): 30° C., 30 minutes, absorbance at 360 nm; for Eg5 inhibitory activity compared with the corresponding racemic mixture (in words): versus Compounds 3, 4, 6, 7, 20, 14, 9, 8, the respectively corresponding racemic mixtures
T1 construct: A plasmid expressing the motor domain of human Eg5 was constructed; made in house; host or cells: Escherichia coli BL21 (DE3)
T1 sequence (P52732 18-359 limits assumed): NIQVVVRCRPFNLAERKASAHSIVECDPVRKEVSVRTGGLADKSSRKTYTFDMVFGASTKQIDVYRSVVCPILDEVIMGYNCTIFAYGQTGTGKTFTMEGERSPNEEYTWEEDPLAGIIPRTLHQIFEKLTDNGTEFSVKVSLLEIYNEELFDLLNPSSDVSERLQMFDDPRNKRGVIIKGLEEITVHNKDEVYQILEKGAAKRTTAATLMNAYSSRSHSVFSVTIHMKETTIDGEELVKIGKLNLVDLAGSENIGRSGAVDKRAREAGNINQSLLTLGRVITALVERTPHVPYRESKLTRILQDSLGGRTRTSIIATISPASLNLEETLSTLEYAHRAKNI
Method: A recombinant human Eg5 motor domain protein was prepared by referring to the literature [Biochemistry, Vol. 35, p. […] A plasmid expressing the motor domain of human Eg5 was constructed, and transformed into Eseherichia coli BL21 (DE3). The transformant was cultured at 25° C., and when the OD600 reached 0.74, isopropyl-β-D-thiogalactoside was added at a final concentration of 0.5 mmol/L. The transformant was further cultured for 4 hours, and then the culture medium was centrifuged to collect the cells. The cells were suspended in a buffer and ultrasonicated, and then the sonicated solution was centrifuged to recover the supernatant. The supernatant was purified by cation exchange column chromatography to obtain a partially purified sample. Furthermore, the partially purified sample was purified by gel filtration column chromatography to obtain a finally purified sample.
Measurement of the ATPase activity of Eg5 was carried out by referring to the literatures [EMBO Journal, Vol. 13, p. […] Solution A was dispensed into each well of a 96-well plate as 45 μL portions. Solution B was used to serially dilute a test compound. The diluted test compound solutions in a volume of 30 μL were mixed with Solution A added beforehand in each well of the 96-well plate to start the enzymatic reaction. The enzymatic reaction was performed at 30° C. for 30 minutes. […] The relative activity was calculated to calculate IC50 value.

[5] = tested on: human acute myeloid leukemia MV-4-11 cells; experiment: Cell growth inhibition test on acute myeloid leukemia cells (XTT), MV-4-11; assay type: cell-based; conditions: MV4-11, same manner as Test Example 1, read-out: growth inhibitory activity, GI50 value
Method: as §2, §3, §4

[6] = tested on: human multiple myeloma NCI-H929 cells; experiment: Cell growth inhibition test against hematopoietic tumor cell lines (XTT), NCI-H929; assay type: cell-based; conditions: 72 hours culture with compound, read-out: growth inhibitory activity, GI50 value
Text: as §1, §2

Compound | melting point | GI50 [1] | GI50 [2] | GI50 [3] | inhibition of the ATPase activity of Eg5 (in words) [4] | Eg5 inhibitory activity compared with the corresponding racemic mixture (in words) [4] | GI50 [5] | GI50 [6]
CC(=O)N1N=C(NC(=O)C(C)(C)C)SC1(CCNS(C)(=O)=O)c1ccccc1 (single isomer, unassigned; (-)) [Compound f, (−)-N-[4-Acetyl-5-(2-methanesulfonylaminoethyl)-5-phenyl-4,5-dihydro-1,3,4-thiadiazol-2-yl]-2,2-dimethylpropanamide] | 187 to 190 °C | – | – | – | – | – | – | –
CC(=O)N1N=C(N2CCCC2=O)SC1(CCNS(C)(=O)=O)c1ccccc1 (stereo not shown) [Compound g, N-{2-[3-Acetyl-5-(2-oxopyrrolidin-1-yl)-2-phenyl-2,3-dihydro-1,3,4-thiadiazol-2-yl]ethyl}methanesulfonamide] | 137 to 140 °C | – | – | – | – | – | – | –
CC(C)(C)C(=O)NC1=NN(C(=O)C(C)(C)C)C(CN)(c2ccccc2)S1 (stereo not shown) (as salt: hydrochloride) [Compound j, N-[5-Aminomethyl-4-(2,2-dimethylpropionyl)-5-phenyl-4,5-dihydro-1,3,4-thiadiazol-2-yl]-2,2-dimethylpropanamide] | 175 to 182 °C | – | – | – | – | – | – | –
CC(C)(C)C(=O)N1N=C(N2CCCC2=O)SC1(CCNS(C)(=O)=O)c1ccccc1 (single isomer, unassigned; (-)) [Compound c, (−)-N-{2-[3-(2,2-Dimethylpropionyl)-5-(2-oxopyrrolidin-1-yl)-2-phenyl-2,3-dihydro-1,3,4-thiadiazol-2-yl]ethyl}methanesulfonamide] | 107 to 110 °C | – | – | – | – | – | – | –
CCC(=O)N1N=C(N2CCCC2=O)SC1(CCNS(C)(=O)=O)c1ccccc1 (single isomer, unassigned; (-)) [Compound e, (−)-N-{2-[5-(2-Oxopyrrolidin-1-yl)-2-phenyl-3-propionyl-2,3-dihydro-1,3,4-thiadiazol-2-yl]ethyl}methanesulfonamide] | 188 to 191 °C | < 10 µM | < 10 µM | < 10 µM | inhibited the ATPase activity of Eg5 in a concentration-dependent manner | stronger inhibitory activities | < 10 µM | < 10 µM
CN(C)CCS(=O)(=O)NCC1(c2ccccc2)SC(NC(=O)C(C)(C)C)=NN1C(=O)C(C)(C)C (single isomer, unassigned; (-)) [Compound m, (−)-N-[5-(2-Dimethylaminoethanesulfonylaminomethyl)-4-(2,2-dimethylpropionyl)-5-phenyl-4,5-dihydro-1,3,4-thiadiazol-2-yl]-2,2-dimethylpropanamide] | 101 to 104 °C | < 10 µM | < 10 µM | < 10 µM | – | – | < 10 µM | < 10 µM
CCNCCS(=O)(=O)NCCC1(c2ccccc2)SC(NC(=O)C(C)(C)C)=NN1C(=O)C(C)(C)C (single isomer, unassigned) [Compound i, N-{4-(2,2-Dimethylpropionyl)-5-[2-(2-ethylaminoethanesulfonylamino)-ethyl]-5-phenyl-4,5-dihydro-1,3,4-thiadiazol-2-yl}-2,2-dimethylpropanamide] | – | < 10 µM | < 10 µM | < 10 µM | inhibited the ATPase activity of Eg5 in a concentration-dependent manner | stronger inhibitory activities | < 10 µM | < 10 µM
CCNCCS(=O)(=O)NCC1(c2ccccc2)SC(NC(=O)C(C)(C)C)=NN1C(=O)C(C)(C)C (single isomer, unassigned; (-)) [Compound l, (−)-N-[4-(2,2-Dimethylpropionyl)-5-(2-ethylaminoethanesulfonylaminomethyl)-5-phenyl-4,5-dihydro-1,3,4-thiadiazol-2-yl]-2,2-dimethylpropanamide] | – | < 10 µM | < 10 µM | < 10 µM | inhibited the ATPase activity of Eg5 in a concentration-dependent manner | stronger inhibitory activities | < 10 µM | < 10 µM
CN(C)CCCS(=O)(=O)NCC1(c2ccccc2)SC(NC(=O)C(C)(C)C)=NN1C(=O)C(C)(C)C (single isomer, unassigned; (-)) [Compound n, (−)-N-[5-(3-Dimethylaminopropanesulfonylaminomethyl)-4-(2,2-dimethylpropionyl)-5-phenyl-4,5-dihydro-1,3,4-thiadiazol-2-yl]-2,2-dimethylpropanamide] | 92 to 95 °C | < 10 µM | < 10 µM | < 10 µM | – | – | < 10 µM | < 10 µM
CC(=O)N1N=C(N2CCCCC2=O)SC1(CCNS(C)(=O)=O)c1ccccc1 (single isomer, unassigned; (-)) [Compound h, (−)-N-{2-[3-Acetyl-5-(2-oxopiperidino)-2-phenyl-2,3-dihydro-1,3,4-thiadiazol-2-yl]ethyl}methanesulfonamide] | 169 to 171 °C | < 10 µM | < 10 µM | < 10 µM | inhibited the ATPase activity of Eg5 in a concentration-dependent manner | stronger inhibitory activities | < 10 µM | < 10 µM
